In patent US9102622B2 (University of Connecticut, priority 2006, dated 2015):
pIC50, pKi: −log10 of the molar value.

Legend:
[1] = target: fatty acid amide hydrolase (FAAH) (Rattus norvegicus (Rat), UniProt P97612); test: FAAH enzyme assay: inhibition of anandamide (AEA) hydrolysis, arachidonic acid quantified by HPLC; assay type: biochemical; conditions: for pIC50 / pKi: eight-point assay; for pIC50: anandamide hydrolysis by FAAH, read-out: IC50; for pKi: calculated with Prizm software, read-out: Ki; for inhibition at 100 µM / inhibition at 0.1 µM: one-point assay, partially purified rat brain FAAH, 15 min, read-out: % Inhibition (Concentration); for inhibition at 100 µM: inhibitor 100 μM; for inhibition at 0.1 µM: inhibitor 100 nM
Sequence of fatty acid amide hydrolase (FAAH) (P97612 whole entry): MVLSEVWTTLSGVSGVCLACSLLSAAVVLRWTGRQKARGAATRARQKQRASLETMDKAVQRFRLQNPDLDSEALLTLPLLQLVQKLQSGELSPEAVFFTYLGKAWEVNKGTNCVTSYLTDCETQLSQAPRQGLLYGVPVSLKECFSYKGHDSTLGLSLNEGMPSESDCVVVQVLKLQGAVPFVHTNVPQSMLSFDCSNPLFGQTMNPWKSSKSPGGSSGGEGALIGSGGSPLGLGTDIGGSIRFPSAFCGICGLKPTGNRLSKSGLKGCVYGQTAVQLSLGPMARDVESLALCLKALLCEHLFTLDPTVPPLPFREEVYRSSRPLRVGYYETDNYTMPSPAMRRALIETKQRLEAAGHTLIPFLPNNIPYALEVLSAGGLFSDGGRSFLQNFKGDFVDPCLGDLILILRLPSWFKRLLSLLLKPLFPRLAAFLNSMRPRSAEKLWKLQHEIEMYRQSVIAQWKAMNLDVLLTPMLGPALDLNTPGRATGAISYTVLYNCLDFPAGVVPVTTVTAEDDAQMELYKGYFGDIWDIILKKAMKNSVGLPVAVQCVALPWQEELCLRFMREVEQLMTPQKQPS
Procedure: The resulting supernatant is injected onto the HPLC.

Row | Compound | melting point | pIC50 [1] | pKi [1] | inhibition at 100 µM [1] | inhibition at 0.1 µM [1]
1 | Oc1cccc(OCCCC(O)(O)C(F)(F)F)c1 (hydrate or solvate) [Compound 24.5, 1,1,1-Trifluoro-2,2-dihydroxy-5-[3-(hydroxy)phenoxy]pentane] | 76 to 77 °C | – | – | – | –
2 | O=S(=O)(Cl)CCCCCCCc1ccc(OCc2ccccc2)cc1 [Compound 12.1, 7-(4-Benzyloxy-phenyl)-heptanesulfonyl chloride] | 33 to 35 °C | 4.27 | 4.90 | 99% | –
3 | O=S(=O)(F)CCCCCCCc1ccc(OCc2ccccc2)cc1 [Compound 13.1, 7-(4-Benzyloxy-phenyl)-heptanesulfonyl fluoride] | 35 to 38 °C | – | – | 100% | –
4 | O=S(=O)(F)CCCCCc1ccc(OCc2ccccc2)cc1 [Compound 13.4, 5-(4-Benzyloxy-phenyl)-pentanesulfonyl fluoride] | 66 to 68 °C | 6.74 | 7.82 | 97% | –
5 | O=S(=O)(F)CCCCCCCc1ccc(O)cc1 [Compound 14.1, 7-(4-Hydroxy-phenyl)-heptanesulfonyl fluoride] | 47 to 51 °C | – | – | 100% | –
6 | O=S(=O)(F)CCCCCc1ccc(O)cc1 [Compound 14.4, 5-(4-Hydroxy-phenyl)-pentanesulfonyl fluoride] | 32 to 35 °C | 6.46 | – | 99% | –
7 | O=S(=O)(Cl)CCCCOc1ccccc1 [Compound 16, 4-Phenoxybutyl sulfonyl chloride] | 65 to 67 °C | 4.27 | 4.90 | 99% | –
8 | O=S(=O)(F)CCCCOc1ccccc1 [Compound 17, 4-Phenoxybutylsulfonyl fluoride] | 74 to 76 °C | 6.65 | 7.28 | 100% | –
9 | COS(=O)(=O)CCCCCCCc1ccc(OCc2ccccc2)cc1 [Compound 18, 7-(4-Benzyloxy-phenyl)-heptane-1-sulfonic acid methyl ester] | 57 to 59 °C | 6.59 | 7.11 | 93% | –
10 | O=C(CCCOc1ccc(OCc2ccccc2)cc1)C(F)(F)F [Compound 23.1, 1,1,1-Trifluoro-5-[4-(benzyloxy)phenoxy]-2-pentanone] | 59 to 61 °C | 5.74 | 6.82 | 96% | –
11 | O=C(CCCCOc1ccc(OCc2ccccc2)cc1)C(F)(F)F [Compound 23.2, 1,1,1-Trifluoro-6-[4-(Benzyloxy)phenoxy]-2-hexanone] | 95.5 to 96 °C | 4.87 | 5.92 | 76% | –
12 | O=C(CCCCCOc1ccc(OCc2ccccc2)cc1)C(F)(F)F [Compound 23.3, 1,1,1-Trifluoro-7-[4-(Benzyloxy)phenoxy]-2-heptanone] | 59 to 60 °C | 5.54 | 6.49 | 94% | –
13 | O=C(CCCCCCOc1ccc(OCc2ccccc2)cc1)C(F)(F)F [Compound 23.4, 1,1,1-Trifluoro-8-[4-(Benzyloxy)phenoxy]-2-octanone] | 82 to 83 °C | 4.93 | 6.08 | 88% | –
14 | O=C(CCCOc1ccccc1OCc1ccccc1)C(F)(F)F [Compound 23.8, 1,1,1-Trifluoro-5-[2-(Benzyloxy)phenoxy]-2-pentanone] | 50 to 51 °C | 4.46 | 5.64 | 46% | –
15 | O=C(CCCCCOc1ccccc1OCc1ccccc1)C(F)(F)F [Compound 23.10, 1,1,1-Trifluoro-7-[2-(Benzyloxy)phenoxy]-2-heptanone] | 31 to 32 °C | 5.10 | 6.26 | 95% | –
16 | O=C(CCCCOc1ccccc1)C(F)(F)F [Compound 23.12, 1,1,1-Trifluoro-6-phenoxy-2-hexanone] | 50 to 51 °C | 4.60 | 5.55 | 65% | –
17 | O=C(CCCCOc1ccc(O)cc1)C(F)(F)F [Compound 24.2, 1,1,1-Trifluoro-6-[4-(hydroxy)phenoxy]-2-hexanone] | 63 to 64 °C | 4.63 | 5.59 | 60% | –
18 | O=C(NCCCc1ccccc1)NCc1ccccn1 [Compound 59.1, N-(3-phenylpropyl)-N′-(2-pyridinylmethyl)-urea] | 89 to 90 °C | – | – | – | –
19 | O=C(NCCCc1ccccc1)Nc1ccccn1 [Compound 59.2, N-(3-phenylpropyl)-N′-(2-pyridinyl)-urea] | 127 to 128 °C | – | – | – | –
20 | O=C(CCCCCCOc1ccccc1)c1nnc(CO)o1 [Compound 74.1, 1-(5-hydroxymethyl-1,3,4-oxadiazol-2-yl)-7-phenoxy-heptan-1-one] | – | 7.82 | 9.00 | 96% | –
21 | O=C(CCCCCCOc1ccc(O)cc1)c1nnc(COCc2ccccc2)o1 [Compound 74.2, 1-(5-benzyloxymethyl-1,3,4-oxadiazol-2-yl)-7-(4-hydroxy-phenoxy)-heptan-1-one] | – | 7.41 | 8.52 | 92% | –
22 | COc1cccc(C(=O)c2nnc(C)o2)c1 [Compound 81, 1-(3-Methoxy-phenyl)-1-(5-methyl-1,3,4-oxadiazol-2-yl)-ketone] | – | – | – | 24% | –
23 | O=C1c2ccccc2S(=O)(=O)N1Cc1ccccc1 [Compound 83.1, N-(Phenylmethyl)saccharin] | – | – | – | 42% | –

Row | Compound | melting point | pIC50 [1] | pKi [1] | inhibition at 100 µM [1] | inhibition at 0.1 µM [1]
24 | O=C1c2ccccc2S(=O)(=O)N1CCCCOc1ccccc1 [Compound 83.2, N-(4-Phenoxy-butyl)saccharin] | – | 4.94 | – | 91% | –
25 | O=C1c2ccccc2S(=O)(=O)N1CCCCOc1ccc(OCc2ccccc2)cc1 [Compound 83.3, N-[4-(4-Benzyloxy-phenoxy)-butyl]saccharin] | – | 4.96 | – | 87% | –
26 | O=C1c2ccccc2S(=O)(=O)N1CCCCOc1ccc(O)cc1 [Compound 84, N-[4-(4-Hydroxy-phenoxy)-butyl]saccharin] | – | 5.04 | 6.05 | 92% | –
27 | CCOC(=O)C(=O)CCCCOc1cccc(OCc2ccccc2)c1 [Compound 87.1] | – | – | – | 100% | –
28 | CCOC(=O)C(=O)CCCCCOc1ccccc1 [Compound 87.4, 2-Oxo-7-phenoxy-heptanoic acid ethyl ester] | – | 6.54 | 7.05 | 100% | –
29 | CC(=O)C(F)(F)CCCCOc1cccc(OCc2ccccc2)c1 [Compound 89.1] | – | 6.57 | 7.10 | – | 79%
30 | CC(=O)C(F)(F)CCCCOc1ccccc1 [Compound 89.2] | – | – | – | 98% | –
31 | CC(=O)C(F)(F)CCCCCOc1ccccc1 [Compound 89.4, 3,3-difluoro-8-phenoxy-2-octanone] | – | 6.64 | 7.15 | 87% | –
32 | Cc1nnc(C(=O)C(F)(F)CCCCCCOc2ccccc2)o1 [Compound 89.7, 2,2-Difluoro-8-phenoxy-1-(5-methyl-1,3,4-oxadiazol-2-yl)-octan-1-one] | – | 7.51 | 8.05 | – | –
33 | OC(O)(c1ccccn1)C(F)(F)CCCCOc1ccccc1 [Compound 89.9 Hydrate form] | – | 7.41 | 7.92 | – | 63%
34 | O=C(c1ccccn1)C(F)(F)CCCCOc1ccccc1 [Compound 89.9, 2,2-Difluoro-6-phenoxy-1-(pyridin-2-yl)-hexan-1-one] | – | 7.11 | 7.62 | – | 52%
35 | O=C(c1cccnc1)C(F)(F)CCCCOc1ccccc1 [Compound 89.10, 2,2-Difluoro-6-phenoxy-1-(pyridin-3-yl)-hexan-1-one] | – | 6.79 | 7.28 | – | 33%
36 | O=C(c1cccnc1)C(F)(F)CCCCOc1cccc(OCc2ccccc2)c1 [Compound 89.11, 2,2-Difluoro-6-[3-(benzyloxy)phenoxy]-1-(pyridin-3-yl)-hexan-1-one] | – | 7.62 | 8.15 | – | 85%
37 | Cc1nnc(C(=O)C(F)(F)CCCCOc2ccccc2)o1 [Compound 89.12] | – | 6.51 | 7.00 | – | 20%
38 | Cc1nnc(C(=O)C(F)(F)CCCCOc2cccc(OCc3ccccc3)c2)o1 [Compound 89.13] | – | 7.42 | – | – | –
39 | CCOC(=O)C(=O)c1ccc(-c2ccccc2)cc1 [Compound 91.1, Ethyl 2-(biphenyl-4-yl)-2-oxoacetate] | – | 4.82 | 5.34 | 86% | –
40 | CCOC(=O)C(=O)c1ccc(Br)cc1 [Compound 91.5, Ethyl 2-(4-bromophenyl)-2-oxoacetate] | – | – | – | 79% | –
41 | Cc1nnc(C(=O)C(F)(F)c2ccc(-c3ccccc3)cc2)o1 [Compound 93.1, 2-(Biphenyl-4-yl)-2,2-difluoro-1-(5-methyl-1,3,4-oxadiazol-2-yl)ethanone] | – | 6.68 | 7.19 | – | 41%
42 | Cc1nnc(C(=O)C(F)(F)c2ccc(Br)cc2)o1 [Compound 93.5, 2-(4-Bromophenyl)-2,2-difluoro-1-(5-methyl-1,3,4-oxadiazol-2-yl)ethanone] | – | 5.78 | 6.28 | 97% | –
43 | O=C(c1cccc(Br)n1)C(F)(F)c1ccc(-c2ccccc2)cc1 [Compound 93.7, 2-(Biphenyl-4-yl)-1-(6-bromopyridin-2-yl)-2,2-difluoroethanone] | – | – | – | 94% | –
44 | O=C(CCCCCCOc1ccccc1)C(F)(F)c1ccccn1 [Compound 96.1, 1,1-Difluoro-8-phenoxy-1-(pyridin-2-yl)octan-2-one] | – | – | – | 86% | –
45 | O=C(c1ccc(-c2ccccc2)cc1)C(F)(F)c1ccccn1 [Compound 96.2, 1 (Biphenyl-4-yl)-2,2-difluoro-2-(pyridin-2-yl)ethanone] | – | – | – | 61% | –
